Data on 61 compounds can be found in article PMC5733478, “A Non-imaging High Throughput Approach to Chemical Library Screening at the Unmodified Adenosine-A3 Receptor in Living Cells” (Frontiers in Pharmacology, 2017).

Structures are written as SMILES. Where a name gives a salt, the structure may show the parent alone.

One assay addresses T1, human A3AR (Homo sapiens, UniProt P0DMS8).
T1 construct: expressed in transfected cells
T1 sequence (P0DMS8 1-318): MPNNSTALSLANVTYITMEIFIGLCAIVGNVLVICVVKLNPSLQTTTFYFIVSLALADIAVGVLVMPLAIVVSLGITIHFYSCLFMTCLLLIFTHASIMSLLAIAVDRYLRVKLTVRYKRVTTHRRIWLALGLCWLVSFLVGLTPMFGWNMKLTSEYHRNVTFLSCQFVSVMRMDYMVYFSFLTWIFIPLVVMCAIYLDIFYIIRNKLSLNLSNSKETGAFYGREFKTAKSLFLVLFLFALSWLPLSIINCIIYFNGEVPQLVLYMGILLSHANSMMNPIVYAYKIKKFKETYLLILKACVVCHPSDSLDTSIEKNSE
The assay is described as follows: LOPAC library primary screen: single concentration (10 μM) inhibition of 25 nM CA200645 binding, PHERAstar FS.
Conditions: not given
For the compound `Oc1ccc2c3c1O[C@H]1c4oc5ccccc5c4C[C@@]4(O)[C@@H](C2)N(CC2CC2)CC[C@]314` [Naltriben methanesulfonate], the “% 25 nM CA200645 binding” value is on record as 106.9 ± 8.0%.

As to `Oc1ccc2c3c1O[C@H]1c4[nH]c5ccccc5c4C[C@@]4(O)[C@@H](C2)N(CC2CC2)CC[C@]314` [Naltrindole hydrochloride], the “% 25 nM CA200645 binding” value was found to be 111.0 ± 9.1%.

On to `c1ccc2c(CC3=NCCN3)cccc2c1` [Naphazoline hydrochloride], for which the “% 25 nM CA200645 binding” value is recorded as 105.3 ± 13.5%.

For `Cc1cccc(C)c1NC(=O)CN1CCCC1=O` [Nefiracetam], the “% 25 nM CA200645 binding” value was found to be 88.8 ± 23.8%.

For the compound `CS(=O)(=O)O.Cc1c(O)cccc1C(=O)N[C@@H](CSc1ccccc1)[C@H](O)CN1C[C@H]2CCCC[C@H]2C[C@H]1C(=O)NC(C)(C)C.O` [Nelfinavir mesylate hydrate], the “% 25 nM CA200645 binding” value is listed as 77.3 ± 17.3%.

On to `CN(C)C(=O)Oc1cccc([N+](C)(C)C)c1` [Neostigmine bromide], for which the “% 25 nM CA200645 binding” value was determined as 100.2 ± 23.4%.

Regarding `O=C(CCNNC(=O)c1ccncc1)NCc1ccccc1` [Nialamide], the “% 25 nM CA200645 binding” value stood at 96.8 ± 7.4%.

For `O=C(Nc1ccc([N+](=O)[O-])cc1Cl)c1cc(Cl)ccc1O` [Niclosamide], the “% 25 nM CA200645 binding” value turned out to be 101.6 ± 22.5%.

With `O=C(O)c1cccnc1Nc1cccc(C(F)(F)F)c1` [Niflumic acid], the “% 25 nM CA200645 binding” value amounted to 113.3 ± 19.3%.

For the compound `CC1(C)NC(=O)N(c2ccc([N+](=O)[O-])c(C(F)(F)F)c2)C1=O` [Nilutamide], the “% 25 nM CA200645 binding” value was found to be 98.7 ± 10.0%.

Take `CS(=O)(=O)Nc1ccc([N+](=O)[O-])cc1Oc1ccccc1` [Nimesulide]: the “% 25 nM CA200645 binding” value is listed as 114.0 ± 22.1%.

`Cc1ncc(CNC(=O)N(CCCl)N=O)c(N)n1` [Nimustine hydrochloride]: the “% 25 nM CA200645 binding” value stood at 95.2 ± 13.6%.

In the case of `CNCCC(Oc1ccccc1OC)c1ccccc1` (stereo not shown) [Nisoxetine hydrochloride], the “% 25 nM CA200645 binding” value turned out to be 97.3 ± 6.5%.

On to `CCOC(=O)C1=C(C)NC(C)=C(C(=O)OC)C1c1cccc([N+](=O)[O-])c1` (stereo not shown) [Nitrendipine], for which the “% 25 nM CA200645 binding” value is 96.1 ± 17.4%.

In the case of `COC(=O)Nc1nc2ccc(C(=O)c3cccs3)cc2[nH]1` [Nocodazole], the “% 25 nM CA200645 binding” value was 79.0 ± 5.7%.

Take `CN1Cc2c(N)cccc2C(c2ccccc2)C1` (stereo not shown) [Nomifensine maleate]: the “% 25 nM CA200645 binding” value is 98.5 ± 14.7%.

Consider `O=C1OC(=O)[C@H]2[C@@H]1[C@@H]1CC[C@H]2O1` [Norcantharidin], for which the “% 25 nM CA200645 binding” value came out at 108.5 ± 19.2%.

For `CNCCC=C1c2ccccc2CCc2ccccc21` [Nortriptyline hydrochloride], the “% 25 nM CA200645 binding” value is recorded as 106.1 ± 17.3%.

On to `COc1ccc2c(c1OC)C(=O)O[C@@H]2[C@H]1c2c(cc3c(c2OC)OCO3)CCN1C.Cl` [Noscapine hydrchloride], for which the “% 25 nM CA200645 binding” value came to 114.6 ± 20.4%.

Regarding `Nc1nc(OCc2ccccc2)c2nc[nH]c2n1` [O6-benzylguanine], the “% 25 nM CA200645 binding” value is 65.0 ± 6.0%.

For `COc1ccc2[nH]cc(CCN)c2c1.Cl` [O-Methylserotonin hydrochloride], the “% 25 nM CA200645 binding” value is recorded as 107.2 ± 4.7%.

Regarding `N[C@@H](COP(=O)(O)O)C(=O)O` [O-Phospho-L-serine], the “% 25 nM CA200645 binding” value is 93.4 ± 14.4%.

Consider `O=c1onc2cnc3ccccc3n12` [ODQ], for which the “% 25 nM CA200645 binding” value amounted to 93.0 ± 5.7%.

Turning to `CC1COc2c(N3CCN(C)CC3)c(F)cc3c(=O)c(C(=O)O)cn1c23` (stereo not shown) [Ofloxacin], the “% 25 nM CA200645 binding” value was found to be 93.4 ± 20.0%.

In the case of `CCCCCCCC/C=C\CCCCCCCC(=O)O` [Oleic Acid], the “% 25 nM CA200645 binding” value was 98.9 ± 11.8%.

Turning to `Cn1cnc2c(NCc3ccccc3)nc(NCCO)nc21` [Olomoucine], the “% 25 nM CA200645 binding” value was determined as 97.0 ± 10.1%.

As for `Cc1[nH]c(=O)c(C#N)cc1-c1ccc2nccn2c1.Cl` [Olprinone hydrochloride], the “% 25 nM CA200645 binding” value is listed as 100.7 ± 4.5%.

For the compound `CCCCCCCC/C=C\CCCCCCCC(=O)NCc1ccc(O)c(OC)c1` [Olvanil], the “% 25 nM CA200645 binding” value is reported as 76.7 ± 2.8%.

On to `OCCN1CCN(CCCN2c3ccccc3C=Cc3ccccc32)CC1` [Opipramol dihydrochloride], for which the “% 25 nM CA200645 binding” value turned out to be 100.5 ± 7.4%.

In the case of `CN(CC[C@@H](Oc1ccc(C(F)(F)F)cc1)c1ccccc1)CC(=O)[O-].[Li+]` [Org 24598 lithium salt], the “% 25 nM CA200645 binding” value amounted to 94.3 ± 5.8%.

On to `C[C@@H]1O[C@@H](O[C@H]2C[C@@H](O)[C@]3(CO)[C@H]4[C@H](O)C[C@]5(C)[C@@H](C6=CC(=O)OC6)CC[C@]5(O)[C@@H]4CC[C@]3(O)C2)[C@H](O)[C@H](O)[C@H]1O` [Ouabain], for which the “% 25 nM CA200645 binding” value stood at 102.0 ± 3.5%.

Consider `O=C(O)CCc1nc(-c2ccccc2)c(-c2ccccc2)o1` [Oxaprozin], for which the “% 25 nM CA200645 binding” value is given as 97.6 ± 6.3%.

As to `NC(=O)CN1CC(O)CC1=O` (stereo not shown) [Oxiracetam], the “% 25 nM CA200645 binding” value is recorded as 97.9 ± 12.4%.

Turning to `CCn1cc(C(=O)O)c(=O)c2cc3c(cc21)OCO3` [Oxolinic acid], the “% 25 nM CA200645 binding” value turned out to be 101.1 ± 12.4%.

For `C[N+](C)(C)CC#CCN1CCCC1=O` [Oxotremorine methiodide], the “% 25 nM CA200645 binding” value was 101.3 ± 18.6%.

In the case of `O=C(O)/C=C/C(=O)O.O=C(O)/C=C/C(=O)O.O=C(O)/C=C/C(=O)O.O=C1CCCN1CC#CCN1CCCC1.O=C1CCCN1CC#CCN1CCCC1` [Oxotremorine sesquifumarate salt], the “% 25 nM CA200645 binding” value was found to be 101.9 ± 13.3%.

For `CCN(CC)CC#CCOC(=O)C(O)(c1ccccc1)C1CCCCC1` (stereo not shown) [Oxybutynin Chloride], the “% 25 nM CA200645 binding” value came out at 101.0 ± 12.8%.

For the compound `C=CCc1cccc(/C=N/NC(=O)CN2CCN(Cc3ccccc3)CC2)c1O` [PAC-1], the “% 25 nM CA200645 binding” value is 105.3 ± 4.5%.

Turning to `Nc1ccc(CCN2CCN(c3cccc(C(F)(F)F)c3)CC2)cc1` [PAPP], the “% 25 nM CA200645 binding” value turned out to be 95.6 ± 9.9%.

As for `COc1cccc(-c2cc(=O)c3ccccc3o2)c1N` [PD 98,059], the “% 25 nM CA200645 binding” value is given as 80.7 ± 2.6%.

With `Cc1cccc(C(=O)NCN2CCN(c3ccccc3C#N)CC2)c1.O=C(O)/C=C\C(=O)O` [PD 168,077 maleate], the “% 25 nM CA200645 binding” value worked out at 92.4 ± 5.3%.

Consider `COc1ccc(C2(O)OC(=O)C(c3ccc4c(c3)OCO4)=C2Cc2cc(OC)c(OC)c(OC)c2)cc1` (stereo not shown) [PD-156707], for which the “% 25 nM CA200645 binding” value was found to be 71.9 ± 8.4%.

For the compound `CCN(CC)CCCCNc1ncc2cc(-c3c(Cl)cccc3Cl)c(NC(=O)NC(C)(C)C)nc2n1` [PD-161570], the “% 25 nM CA200645 binding” value came out at 90.7 ± 9.1%.

`CCN(CC)CCOc1ccc(Nc2ncc3cc(-c4c(Cl)cccc4Cl)c(=O)n(C)c3n2)cc1.O` [PD-166285 hydrate]: the “% 25 nM CA200645 binding” value is reported as 108.1 ± 4.5%.

Turning to `COc1cc(OC)cc(-c2cc3cnc(N)nc3nc2NC(=O)NC(C)(C)C)c1` [PD-166866], the “% 25 nM CA200645 binding” value was found to be 34.3 ± 9.7%.

`CS(=O)(=O)c1cccc(CNc2nc(Nc3ccc4c(c3)CCC(=O)N4)ncc2C(F)(F)F)c1` [PF-573228]: the “% 25 nM CA200645 binding” value is listed as 54.7 ± 30.2%.

As for `CCc1cncnc1N1CCN(Cc2nc3ccc(C(F)(F)F)cc3[nH]2)CC1` [PF-4708671], the “% 25 nM CA200645 binding” value is 99.2 ± 13.5%.

In the case of `CCC(C)N(C)C(=O)c1cc2ccccc2c(-c2ccccc2Cl)n1` (stereo not shown) [PK 11195], the “% 25 nM CA200645 binding” value was 93.2 ± 6.1%.

Take `Nc1nc2c(ncn2CCOCP(=O)(O)O)c(=O)[nH]1` [PMEG hydrate]: the “% 25 nM CA200645 binding” value is reported as 97.6 ± 14.8%.

For the compound `O=C(N[C@H]1CN2CCC1CC2)c1ccc(Cl)cc1` [PNU-282987], the “% 25 nM CA200645 binding” value worked out at 78.9 ± 33.0%.

For the compound `Cc1nc(N=Nc2ccc(S(=O)(=O)O)cc2S(=O)(=O)O)c(COP(=O)(O)O)c(C=O)c1O` [PPADS], the “% 25 nM CA200645 binding” value worked out at 106.1 ± 11.3%.

Consider `Cc1nc(N=Nc2cc(S(=O)(=O)[O-])c3cc([N+](=O)[O-])cc(S(=O)(=O)[O-])c3c2)c(COP(=O)([O-])[O-])c(C=O)c1O.[Na+].[Na+].[Na+].[Na+]` [PPNDS tetrasodium], for which the “% 25 nM CA200645 binding” value was 100.4 ± 12.5%.

Turning to `O=C(OCCN1CCOCC1)C1(c2ccccc2)CCCCC1` [PRE-084], the “% 25 nM CA200645 binding” value came to 100.3 ± 14.3%.

Consider `Cc1nc2n(c(=O)c1CCN1CCC(c3noc4cc(F)ccc34)CC1)CCCC2O` (stereo not shown) [Paliperidone], for which the “% 25 nM CA200645 binding” value is given as 94.9 ± 1.6%.

Take `COc1ccc(Cc2nccc3cc(OC)c(OC)cc23)cc1OC` [Papaverine hydrochloride]: the “% 25 nM CA200645 binding” value was 86.6 ± 22.0%.

Regarding `C#CCN(C)Cc1ccccc1` [Pargyline hydrochloride], the “% 25 nM CA200645 binding” value came to 102.9 ± 12.8%.

Turning to `NC[C@@H]1O[C@H](O[C@H]2[C@@H](O)[C@H](O[C@@H]3[C@@H](O)[C@H](N)C[C@H](N)[C@H]3O[C@H]3O[C@H](CO)[C@@H](O)[C@H](O)[C@H]3N)O[C@@H]2CO)[C@H](N)[C@@H](O)[C@@H]1O` [Paromomycin sulfate], the “% 25 nM CA200645 binding” value is listed as 106.3 ± 7.8%.

Regarding `Fc1ccc([C@@H]2CCNC[C@H]2COc2ccc3c(c2)OCO3)cc1` [Paroxetine hydrochloride hemihydrate], the “% 25 nM CA200645 binding” value is listed as 97.2 ± 4.3%.

For `N=C(N)c1ccc(OCCCCCOc2ccc(C(=N)N)cc2)cc1` [Pentamidine isethionate], the “% 25 nM CA200645 binding” value worked out at 100.3 ± 6.3%.

Still in this assay, the particulars now being: % of control wells (1% DMSO and 25 nM CA200645); compounds at 10 µM; whole live cells expressing the A3AR; mean ± SD, three experiments in duplicate.
With `C=C1C(=O)O[C@H]2[C@H]1CC/C(C)=C/CC[C@@]1(C)O[C@@H]21` [Parthenolide], the “% 25 nM CA200645 binding” value is 98.5 ± 15.3%.

Still in this assay, the particulars now being: compounds tested at 10 µM; % of control wells (1% DMSO and 25 nM CA200645); whole live cells expressing the A3AR; mean ± SD, three experiments in duplicate.
Consider `CNS(=O)(=O)CCc1ccc2[nH]cc(C3CCN(C)CC3)c2c1` [Naratriptan hydrochloride], for which the “% 25 nM CA200645 binding” value is on record as 102.9 ± 17.6%.
